Data on 31 compounds can be found in patent publication US10844032B2, “Substituted benzofuran, benzothiophene and indole Mcl-1 inhibitors” (Vanderbilt University, priority 2012, dated 2020).

One test deals with recombinant Mcl-1 (residues 172-327) (Homo sapiens (Human), UniProt Q07820). The test is described as follows: Bak peptide fluorescence polarization anisotropy competition assay, Mcl-1. The format is binding. The settings on record: Table 2, Ki range; FITC-Bak peptide 10 nM, Mcl-1 14 nM; read-out: Ki for inhibition of Mcl-1.
recombinant Mcl-1 (residues 172-327), sequence (Q07820 172-327): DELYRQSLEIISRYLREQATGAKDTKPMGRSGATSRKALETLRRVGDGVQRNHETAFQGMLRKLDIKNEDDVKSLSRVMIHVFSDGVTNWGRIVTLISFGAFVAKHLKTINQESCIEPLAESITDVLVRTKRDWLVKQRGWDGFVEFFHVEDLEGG
Consider `Cc1cc(OCCCc2c(C(=O)NS(=O)(=O)c3ccc(CO)o3)[nH]c3cc(Cl)ccc23)cc(C)c1Cl` [Example 260, -chloro-3-(3-(4-chloro-3,5-dimethylphenoxy)propyl)-N-((5-(hydroxymethyl)furan-2-yl)sulfonyl)-1H-indole-2-carboxamide], for which the Ki was at most 100 nM.
As to `CCn1nccc1-c1cccc2c(CCCOc3cc(C)c(Cl)c(C)c3)c(C(=O)NS(=O)(=O)c3ccccc3)[nH]c12` [Example 302, 3-(3-(4-chloro-3,5-dimethylphenoxy)propyl)-7-(1-ethyl-1H-pyrazol-5-yl)-N-(phenylsulfonyl)-1H-indole-2-carboxamide], the Ki was at most 100 nM.
As for `COCc1nn(C)c(C)c1-c1cccc2c(CCCOc3cc(C)c(Cl)c(C)c3)c(C(=O)NS(=O)(=O)c3ccccc3)[nH]c12` [Example 130, 3-(3-(4-chloro-3,5-dimethylphenoxy)propyl)-7-(3-(methoxymethyl)-1,5-dimethyl-1H-pyrazol-4-yl)-N-(phenylsulfonyl)-1H-indole-2-carboxamide], the Ki was at most 100 nM.
For the compound `Cc1cc(OCCCc2c(C(=O)NS(=O)(=O)c3ccccc3)[nH]c3c(-c4c(C)noc4C)cccc23)cc(C)c1Cl` [Example 88, 3-(3-(4-chloro-3,5-dimethylphenoxy)propyl)-7-(3,5-dimethylisoxazol-4-yl)-N-(phenylsulfonyl)-1H-indole-2-carboxamide], the inhibition constant Ki was at most 100 nM.
On the same count and under the same terms, the figure for `COC(=O)c1cc(S(=O)(=O)NC(=O)c2[nH]c3cc(Cl)ccc3c2CCCOc2cc(C)c(Cl)c(C)c2)oc1C` [Example 264, methyl 5-(N-(6-chloro-3-(3-(4-chloro-3,5-dimethylphenoxy)propyl)-1H-indole-2-carbonyl)sulfamoyl)-2-methylfuran-3-carboxylate] is at most 100 nM.
Still for that read-out and setting: then `Cc1cc(OCCCc2c(C(=O)NS(C)(=O)=O)[nH]c3cccc(Cl)c23)cc(C)c1Cl` [Example 51, 4-chloro-3-(3-(4-chloro-3,5-dimethylphenoxy)propyl)-N-(methylsulfonyl)-1H-indole-2-carboxamide], with at most 100 nM.

Still in this test, the particulars now being: read-out: Ki for inhibition of Mcl-1.
For `COc1ccc(S(=O)(=O)NCCS(=O)(=O)NC(=O)c2[nH]c3ccccc3c2CCCOc2cc(C)c(Cl)c(C)c2)cc1` [Example 147, 3-(3-(4-chloro-3,5-dimethylphenoxy)propyl)-N-((2-(4-methoxyphenylsulfonamido)ethyl)sulfonyl)-1H-indole-2-carboxamide], the inhibitory constant (Ki) was 301 to 500 nM.
On the same count and under the same terms, the figure for `Cc1cc(OCCCc2c(C(=O)NS(=O)(=O)CCNC(=O)c3nccn3Cc3ccccc3)[nH]c3ccccc23)cc(C)c1Cl` [Example 173, N-((2-(1-benzyl-1H-imidazole-2-carboxamido)ethyl)sulfonyl)-3-(3-(4-chloro-3,5-dimethylphenoxy)propyl)-1H-indole-2-carboxamide] is 501 to 999 nM.
The same measure, in the same setting: the figure for `CS(=O)(=O)NC(=O)c1[nH]c2ccccc2c1CCCOc1ccc(Cl)c2ccccc12` [Example 39, 3-(3-((4-chloronaphthalen-1-yl)oxy)propyl)-N-(methylsulfonyl)-1H-indole-2-carboxamide] is 501 to 999 nM.
The same measure, in the same setting: the figure for `CS(=O)(=O)NC(=O)c1[nH]c2cc(Cl)ccc2c1CCCOc1ccc(Cl)c2ccccc12` [Example 76, 6-chloro-3-(3-((4-chloronaphthalen-1-yl)oxy)propyl)-N-(methylsulfonyl)-1H-indole-2-carboxamide] is 301 to 500 nM; for `Cc1cc(OCCCc2c(C(=O)NS(C)(=O)=O)sc3ccccc23)cc(C)c1Cl` [Example 68, 3-(3-(4-chloro-3,5-dimethylphenoxy)propyl)-N-(methylsulfonyl)benzo[b]thiophene-2-carboxamide] it is 1000 to 9990 nM; for `Cc1cc(OCCCc2c(C(=O)NS(=O)(=O)CCNC(=O)c3c[nH]cn3)[nH]c3ccccc23)cc(C)c1Cl` [Example 186, N-((2-(1H-imidazole-4-carboxamido)ethyl)sulfonyl)-3-(3-(4-chloro-3,5-dimethylphenoxy)propyl)-1H-indole-2-carboxamide] it is 1000 to 9990 nM.
For the compound `Cc1ccccc1Cn1cccc1C(=O)NCCS(=O)(=O)NC(=O)c1[nH]c2cc(Cl)ccc2c1CCCOc1cc(C)c(Cl)c(C)c1` [Example 244, 6-chloro-3-(3-(4-chloro-3,5-dimethylphenoxy)propyl)-N-((2-(1-(2-methylbenzyl)-1H-pyrrole-2-carboxamido)ethyl)sulfonyl)-1H-indole-2-carboxamide], the Ki is 301 to 500 nM.
Take `Cc1cc(OCCCc2c(C(=O)NS(C)(=O)=O)[nH]c3cc(C(F)(F)F)ccc23)ccc1Cl` [Example 77, 3-(3-(4-chloro-3-methylphenoxy)propyl)-N-(methylsulfonyl)-6-(trifluoromethyl)-1H-indole-2-carboxamide]: the inhibition constant Ki lay within 301 to 500 nM.
As for `Cc1cc(OCCCc2c(C(=O)NS(=O)(=O)CCNC(=O)CCc3ccccc3)[nH]c3ccccc23)cc(C)c1Cl` [Example 164, 3-(3-(4-chloro-3,5-dimethylphenoxy)propyl)-N-((2-(3-phenylpropanamido)ethyl)sulfonyl)-1H-indole-2-carboxamide], the Ki lay within 101 to 299 nM.
Same read-out and setting: then `Cc1cc(OCCCc2c(C(=O)NS(=O)(=O)CCNS(=O)(=O)c3ccc(Cl)c(Cl)c3)[nH]c3ccccc23)cc(C)c1Cl` [Example 148, 3-(3-(4-chloro-3,5-dimethylphenoxy)propyl)-N-((2-(3,4-dichlorophenylsulfonamido)ethyl)sulfonyl)-1H-indole-2-carboxamide], with 101 to 299 nM; and `O=C(NS(=O)(=O)Cc1ccccc1)c1sc2ccccc2c1CCCOc1cccc2ccccc12` [Example 62, N-(Benzylsulfonyl)-3-(3-(naphthalen-1-yloxy)propyl)benzo[b]thiophene-2-carboxamide], with 1000 to 9990 nM; and `Cc1ccc(OCCCc2c(C(=O)NS(C)(=O)=O)[nH]c3ccccc23)cc1` [Example 33, N-(methylsulfonyl)-3-(3-(p-tolyloxy)propyl)-1H-indole-2-carboxamide], with 10000 to 50000 nM.
Same read-out and setting: the figure for `Cc1cc(OCCCc2c(C(=O)NS(=O)(=O)CCNC(=O)c3ccccc3F)[nH]c3ccccc23)cc(C)c1Cl` [Example 160, 3-(3-(4-chloro-3,5-dimethylphenoxy)propyl)-N-((2-(2-fluorobenzamido)ethyl)sulfonyl)-1H-indole-2-carboxamide] is 301 to 500 nM.
As to `CC(=O)N1CCN(c2ccc(OCc3nn(C)c(C)c3-c3cccc4c(CCCOc5cc(C)c(Cl)c(C)c5)c(C(=O)NS(C)(=O)=O)n(Cc5cccnc5)c34)cc2)CC1` [Example 125, 7-(3-((4-(4-acetylpiperazin-1-yl)phenoxy)methyl)-1,5-dimethyl-1H-pyrazol-4-yl)-3-(3-(4-chloro-3,5-dimethylphenoxy)propyl)-N-(methylsulfonyl)-1-(pyridin-3-ylmethyl)-1H-indole-2-carboxamide], the Ki is 101 to 299 nM.
The same measure, in the same setting: the figure for `Cc1cc(OCCCc2c(C(=O)NS(C)(=O)=O)[nH]c3c(Br)cccc23)cc(C)c1Cl` [Example 83, 7-bromo-3-(3-(4-chloro-3,5-dimethylphenoxy)propyl)-N-(methylsulfonyl)-1H-indole-2-carboxamide] is 301 to 500 nM.
Same read-out and setting: the figure for `Cc1cc(OCCCc2c(C(=O)NS(=O)(=O)CCN(C/C=C/c3ccccc3)C/C=C/c3ccccc3)[nH]c3ccccc23)cc(C)c1Cl` [Example 203, 3-(3-(4-chloro-3,5-dimethylphenoxy)propyl)-N-((2-(dicinnamylamino)ethyl)sulfonyl)-1H-indole-2-carboxamide] is 301 to 500 nM; for `CS(=O)(=O)NC(=O)c1[nH]c2ccccc2c1CCCOc1cccc2ccccc12` [Example 19, N-(methylsulfonyl)-3-(3-(naphthalen-1-yloxy)propyl)-1H-indole-2-carboxamide] it is 1000 to 9990 nM; for `O=C(O)c1oc2ccccc2c1CCCc1cccc2ccccc12` [Example 22, 3-(3-(naphthalen-1-yl)propyl)benzofuran-2-carboxylic acid] it is 10000 to 50000 nM.
For `O=C(NCCS(=O)(=O)NC(=O)c1[nH]c2cc(Cl)ccc2c1CCCOc1cccc2ccccc12)c1ccc2cc[nH]c2c1` [Example 239, N-((2-(1H-indole-6-carboxamido)ethyl)sulfonyl)-6-chloro-3-(3-(naphthalen-1-yloxy)propyl)-1H-indole-2-carboxamide], the Ki was in the range of 301 to 500 nM.
Still for that read-out and setting: the figure for `Cc1cc(OCCCc2c(C(=O)NS(=O)(=O)CCCNC3CCCCC3)[nH]c3ccccc23)cc(C)c1Cl` [Example 145, 3-(3-(4-chloro-3,5-dimethylphenoxy)propyl)-N-((3-(cyclohexylamino)propyl)sulfonyl)-1H-indole-2-carboxamide] is 1000 to 9990 nM; for `O=C(O)c1sc2cc(-c3ccccc3)ccc2c1CCCOc1cccc2ccccc12` [Example 13, 3-(3-(naphthalen-1-yloxy)propyl)-6-phenylbenzo[b]thiophene-2-carboxylic acid] it is 1000 to 9990 nM; for `COc1ccc(Oc2cccc(S(=O)(=O)NC(=O)c3[nH]c4ccccc4c3CCCOc3cc(C)c(Cl)c(C)c3)c2)cc1` [Example 142, 3-(3-(4-chloro-3,5-dimethylphenoxy)propyl)-N-((3-(4-methoxyphenoxy)phenyl)sulfonyl)-1H-indole-2-carboxamide] it is 301 to 500 nM.
Same read-out and setting: then `O=C(O)c1sc2ccccc2c1CCc1cccc2ccccc12` [Example 64, 3-(2-(naphthalen-1-yl)ethyl)benzo[b]thiophene-2-carboxylic acid], with 1000 to 9990 nM; and `Cc1cc(OCCCc2c(C(=O)NS(=O)(=O)CCNC(=O)c3ccco3)[nH]c3ccccc23)cc(C)c1Cl` [Example 171, 3-(3-(4-chloro-3,5-dimethylphenoxy)propyl)-N-((2-(furan-2-carboxamido)ethyl)sulfonyl)-1H-indole-2-carboxamide], with 101 to 299 nM.
Regarding `Cc1cc(OCCCc2c(C(=O)NS(C)(=O)=O)[nH]c3c(-c4c(CO)nn(C)c4C)cccc23)cc(C)c1Cl` [Example 126, 3-(3-(4-chloro-3,5-dimethylphenoxy)propyl)-7-(3-(hydroxymethyl)-1,5-dimethyl-1H-pyrazol-4-yl)-N-(methylsulfonyl)-1H-indole-2-carboxamide], the Ki lay in the range of 101 to 299 nM.
